Earlier results on 2 compounds are cited in US20090220426A1, “Biodegradable Inverted-Opal Structure, Method for Manufacturing and Using the Same, and Medical Implant Comprising the Biodegradable Inverted-Opal Structure” (KINKI UNIVERSITY, priority 2006, published 2009).

This data set has as its system mouse.

As for `OCCCCCO` [1,5-pentanediol], the “L.D.50 (oral mouse)” value is 25,500 mg/kg.

`OCC(CO)(CO)CO` [pentaerythritol]: the “L.D.50 (oral mouse)” value is listed as 25,500 mg/kg.
